Data on twelve compounds can be found in PubChem BioAssay (NCI).

“And” between values parts separate entries of the source, which are not always exact repeats. Equal values may be shown once.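 The compound was tested at five concentrations on cells cultured in 96-well plates, with a 48-hour exposure period. Abbreviation: GI50, concentration required for 50% inhibition of growth. TGI marks complete inhibition of growth.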

Assay in all cases: NCI anticancer screen, dose series, 48 h
In experiment [1] the test system is TK-10 renal.
Experiment [2] relates to T-47D breast.
Experiment [3] relates to NCI-H522 lung.
Experiment [4] concerns HL-60(TB) leukemia.
The test system of experiment [5] is NCI-H460 lung.
The subject of experiment [6] is UACC-257 melanoma.
In experiment [7] the test system is SN12C renal.
Experiment [8] relates to ACHN renal.
For experiment [9], the system named is UACC-62 melanoma.
For experiment [10], the system named is SK-MEL-28 melanoma.

Take `O=C(NN=C1CCCCC1)c1[nH]c2ccc(F)cc2c1-c1ccccc1`: the GI50 was 91 µM in experiment [1]; 46.8 µM in [2]; 44.1 µM in experiment [3]; 18.2 µM in [4]; 22 µM in [5]; 59.1 µM in [6]. The GI50 in [7] was 28.6 µM; in experiment [8], 42.6 µM; in [9] it was 38.6 µM; in [10] it was 27.3 µM. For the same compound, the TGI in [1] is over 100 µM; in experiment [2] it was over 100 µM; in experiment [3] it was over 100 µM; in experiment [4], 52.7 µM; in experiment [5], 50.8 µM; in [6], over 100 µM. Besides, the TGI is 84.8 µM in experiment [7], over 100 µM in experiment [8], over 100 µM in experiment [9] and over 100 µM in experiment [10].
Regarding `CCCCCCCCCCCCCCCCOP(=O)(O)OP(=O)(O)OCC1OC(n2ccc(N)nc2=O)C(O)C1O` (stereo not given), the TGI in [1], in [2], in [3], in experiment [4], in experiment [5] and in experiment [6] was over 100 µM each time. The TGI in [7], in [8], in [9] and in experiment [10] was over 100 µM in each case. Further, the GI50 in experiment [3] was over 100 µM; in experiment [7] it was > 100 µM and 19.4 µM; in [9], > 100 µM and 21.3 µM.
For the compound `COC(=O)/C=C/c1cn(C(C)=O)c2ccc(Br)cc12`, the GI50 in experiment [1] was 24.7 µM; in experiment [2], 23.4 µM; in experiment [3] it was 21 µM; in experiment [4] it was 15.3 µM; in experiment [5], 34.6 µM; in experiment [6], 35.6 µM. In addition, the GI50 in experiment [7] was 31.6 µM; in experiment [8], 29.4 µM; in experiment [9] it was 30.7 µM; in [10], 49 µM. Moreover, the TGI in [1] was 71.4 µM; in experiment [2], over 100 µM; in experiment [3], 97.5 µM; in experiment [4], over 100 µM; in [5], over 100 µM; in [6], over 100 µM. In addition, the TGI in [7], in [8], in experiment [9] and in [10] was over 100 µM throughout.
As for `COc1ccc(CNc2nc3cc(N)cc(N)c3nc2-c2ccccc2)cc1`, the GI50 was 28.1 µM in experiment [1]; 2.8 µM in experiment [2]; 10 µM in [3]; 13.6 µM in experiment [4]; 20.5 µM in experiment [5]; 16.3 µM in [6]. The GI50 in experiment [7] is 16.8 µM; in experiment [8] it was 14.9 µM; in experiment [9] it was 14.9 µM; in [10], 17.3 µM. For the same compound, the TGI in experiment [1] turned out to be 57.8 µM; in [2] it was 11 µM; in experiment [3] it was 22 µM; in [4], 51.3 µM; in [5], 48.4 µM; in experiment [6] it was 30.4 µM. In addition, the TGI in [7] worked out at 34.3 µM; in experiment [8] it was 33.6 µM; in experiment [9], 29.8 µM; in experiment [10], 32.3 µM.
For `CC(=O)Oc1cc2c(OC(C)=O)c(-c3c(C)cc4c(C(C)C)c(OC(C)=O)c(OC(C)=O)cc4c3OC(C)=O)c(C)cc2c(C(C)C)c1OC(C)=O`, the GI50 in [1] is 7.37 µM and 5.6 µM and 16.2 µM; in experiment [2], > 100 µM and 10.2 µM and 19.1 µM; in experiment [3] it was 5.15 µM and 1.52 µM and 5.49 µM; in experiment [4], 13.1 µM and 3.07 µM and 4.8 µM; in experiment [5] it was 6.16 µM and 6.95 µM and 11.6 µM; in experiment [6], 5.23 µM and 2.58 µM and 8.39 µM. In addition, the GI50 in [7] was 1.21 µM and 1.22 µM and 6.11 µM; in experiment [8] it was 5.56 µM and 4.86 µM and 8.79 µM; in experiment [9], 1.03 µM and 4.38 µM and 5.54 µM; in experiment [10], 5.12 µM and 15.3 µM and 18.8 µM. Also, the TGI was 21.9 µM and 17.4 µM and > 42.8 µM in experiment [1]; > 100 µM and > 25.2 µM and 36.1 µM in experiment [2]; 10.5 µM and 3.23 µM and 11.5 µM in experiment [3]; 33.2 µM and 9.99 µM and 16.2 µM in experiment [4]; 15.3 µM and 17.5 µM and 32.3 µM in experiment [5]; 14.4 µM and 10.5 µM and 25.6 µM in experiment [6]. Also, the TGI is 2.44 µM and 8.04 µM and 12.8 µM in experiment [7]; 13.2 µM and 11.6 µM and 22.8 µM in experiment [8]; 2.2 µM and 8.65 µM and 11.7 µM in experiment [9]; 12.4 µM and 35.1 µM and 41.1 µM in [10].
On to `COc1cc(O)c2c(c1)C(=O)c1cc3c(c(O)c1C2=O)C(OC1OC(C)C(O)C(O)C1OC)C(OC)C(C)(O)C3=O` (stereo not given), for which the GI50 is 4.29 µM in [1]; 3.12 µM in [2]; 2.18 µM in experiment [3]; 3.44 µM and 6.26 µM in [4]; 1.27 µM in experiment [5]; 1.98 µM in experiment [6]. The GI50 in experiment [8] was 2.4 µM; in experiment [9] it was 1.68 µM; in [10], 2.24 µM and 1.74 µM. Besides, the TGI in experiment [1] was 61.4 µM; in [2], 9.21 µM; in experiment [3], 6.7 µM and 9.45 µM; in [4], 17.6 µM and 24.3 µM; in [5], 4.54 µM and 4.77 µM; in experiment [6] it was 5.25 µM and 2.5 µM. In addition, the TGI was 7.18 µM and 7.44 µM in experiment [7]; 12.4 µM in experiment [8]; 3.16 µM and 4.1 µM in experiment [9]; 5.97 µM and 5.4 µM in experiment [10].
For the compound `COc1ccc(OC)c(-c2cc(=O)c3c(OC)c(OC)c(OC)c(OC)c3o2)c1`, the TGI in [1] is over 100 µM; in experiment [2], 21.3 µM; in experiment [3], 46.4 µM; in [4], over 100 µM; in experiment [5], over 100 µM; in experiment [6] it was over 100 µM. The TGI in experiment [7] was over 100 µM; in [8], 71.3 µM; in [9], 64.3 µM; in experiment [10], over 100 µM.
For the compound `CCOC(=O)C(C)(C)C(O)C(C)C` (stereo not given), the TGI in [1], in [2], in experiment [3], in experiment [4], in [5] and in [6] was over 100 µM each time. In addition, the TGI in [7], in [8], in experiment [9] and in experiment [10] was over 100 µM throughout.
Consider `O=S(=O)(Nc1cc(Cl)ccc1Cl)c1ccc(-c2cnc(C3CC3)o2)cc1`, for which the GI50 is 13.6 µM in experiment [1]; 1.94 µM in [2]; 1.75 µM in experiment [3]; 0.468 µM in [4]; 0.769 µM in experiment [5]; 15 µM in experiment [6]. In addition, the GI50 in experiment [7] is 4.32 µM; in experiment [8], 4.1 µM; in [9] it was 0.399 µM; in experiment [10] it was 6.21 µM. Also, the TGI in [1] is over 100 µM; in [2], over 100 µM; in [3] it was 39.2 µM; in experiment [4], 16.4 µM; in [5], 17.4 µM; in [6], 56.4 µM. The TGI is over 100 µM in experiment [7], 76.6 µM in [8], 23.9 µM in experiment [9] and 82.8 µM in [10].
For `COc1cccc2c1c(C1=C(c3cn(C)c4ccccc34)C(=O)NC1=O)cn2C`, the GI50 in [1], in experiment [2], in experiment [3], in experiment [4], in [5] and in experiment [6] was over 25 µM throughout. Also, the GI50 in experiment [7], in experiment [8], in [9] and in experiment [10] was over 25 µM in each case. The TGI in experiment [1], in [2], in experiment [3], in experiment [4], in experiment [5] and in experiment [6] was over 25 µM throughout. Also, the TGI in experiment [7], in experiment [8], in experiment [9] and in [10] was over 25 µM each time.
Take `CN(C)CCOC(c1ccccc1)c1ccccc1`: the GI50 in experiment [1] is 45.9 µM; in [2], 31.4 µM; in experiment [3], 25.6 µM; in experiment [5], 26.2 µM; in experiment [6], 14.2 µM; in experiment [7], 34.6 µM. Also, the GI50 in [9] was 32.7 µM; in [10] it was 18.1 µM. In addition, the TGI was 59.7 µM and > 100 µM in experiment [1]; 57.2 µM and > 100 µM in experiment [2]; 44.3 µM and > 100 µM in experiment [3]; over 100 µM in experiment [4]; 46 µM and > 100 µM in [5]; 19.8 µM and > 100 µM in experiment [6]. The TGI in experiment [7] was 50.2 µM and > 100 µM; in experiment [8] it was over 100 µM; in experiment [9] it was 48.4 µM; in experiment [10] it was 35.3 µM and > 100 µM.
With `C/C(=C(\c1ccc(OCCN2CCCCCC2)cc1)c1ccc(OC(=O)Cc2ccccc2)cc1)c1ccc(Cl)cc1`, the GI50 in [1] is 4.43 µM; in experiment [2] it was 1.95 µM; in experiment [3] it was 3.6 µM; in experiment [4], 3.5 µM; in [5] it was 2.64 µM; in experiment [6], 3.25 µM. Moreover, the GI50 in experiment [7] is 2.56 µM; in experiment [8], 2.63 µM; in experiment [9] it was 2.73 µM; in [10], 2.52 µM. Besides, the TGI in experiment [1] was 16.6 µM; in experiment [2] it was 6.42 µM; in experiment [3] it was 6.87 µM; in experiment [4], 8.17 µM; in experiment [5], 5.2 µM; in experiment [6], 6.22 µM. Also, the TGI worked out at 5.07 µM in experiment [7], 4.93 µM in experiment [8], 5.2 µM in experiment [9] and 5.03 µM in experiment [10].
